Legend:
[1] = system: CHO (Chinese hamster ovary); experiment: MTT assay, CHO cells; assay type: cell-based; settings: for IC50: Cricetulus griseus, CHO, MTT assay, CHO cells, value (standard deviation), read-out: IC50 [μM] (±s) CHO; for Selectivity Index (SI) CHO: IC50 of HDFs / IC50 of CHO
Procedure: (§1) Each medium was supplemented with 10% fetal bovine serum, 1% L-glutamine, and 1% penicillin/streptomycin solution. The cell lines were incubated at 37 °C in a humidified atmosphere containing 5% CO2. Cells were counted using the Fuchs–Rosenthal counting chamber (hemocytometer) with modifications.
(§2) The final product of this reaction gives violet formazan crystals. The number of live cells is proportional to the amount of formazan and is represented by the violet dye reagent. The details of the experiments are given, e.g., in [54].
(§3) Statistical analyses for the cytotoxic activity were carried out using the nonparametric Kruskal–Wallis H test for unpaired data and ANOVA Friedman two-way analysis of variance test for paired data. Statistical significance was tested using Dunn’s post-hoc test. The IC50 values compared to the control IC50 were calculated using GraphPad Prism v. 10.1.1. software.

[2] = system: A-549 (human lung carcinoma); experiment: MTT assay, A-549 cells; assay type: cell-based; settings: for IC50: Homo sapiens, A549, MTT assay, A-549 cells, value (standard deviation), read-out: IC50 [μM] (±s) A-549; for Selectivity Index (SI) A-549: IC50 of HDFs / IC50 of A-549
Procedure: as §1, §2, §3

[3] = system: PC-3 (human prostate carcinoma); experiment: MTT assay, PC-3 cells; assay type: cell-based; settings: for IC50: Homo sapiens, PC-3, MTT assay, PC-3 cells, value (standard deviation), read-out: IC50 [μM] (±s) PC-3; for Selectivity Index (SI) PC-3: IC50 of HDFs / IC50 of PC-3
Procedure: as §1, §2, §3

[4] = system: SKOV-3 (human ovarian carcinoma); experiment: MTT assay, SKOV-3 cells; assay type: cell-based; settings: for IC50: Homo sapiens, SK-OV-3, MTT assay, SKOV-3 cells, value (standard deviation), read-out: IC50 [μM] (±s) SKOV-3; for Selectivity Index (SI) SKOV-3: IC50 of HDFs / IC50 of SKOV-3
Procedure: as §1, §2, §3

[5] = system: HDFs (human dermal fibroblasts); experiment: MTT assay, HDFs (normal cells); assay type: cell-based; settings: Fibroblast, value (standard deviation), read-out: IC50 [μM] (±s) HDFs
Procedure: as §1, §2, §3

A-549, PC-3, and SKOV-3 = experiment: MTT assay, statements over the cancer cell lines together; assay type: cell-based, human; settings: for IC50: Homo sapiens, MTT assay, A-549, PC-3 and SKOV-3 together, summary of Table 3, read-out: IC50 stated over the cancer cell lines together; for Selectivity Index stated over the tested cell lines together: IC50 of HDFs / IC50 of cell line, text summary of Table 4
Procedure: as §1, §2

IC50 [2] | IC50 [3] | IC50 [4] | IC50 (A-549, PC-3, and SKOV-3) | SMILES | IC50 [1] | Selectivity Index (SI) CHO [1] | Selectivity Index (SI) A-549 [2] | Selectivity Index (SI) PC-3 [3] | Selectivity Index (SI) SKOV-3 [4] | IC50 [5] | Selectivity Index stated over the tested cell lines together (A-549, PC-3, and SKOV-3)
38 µM | 31 µM | 37 µM | 24 to 38 µM | CC1(C)CC[C@@]23CC[C@@]4(C)[C@]5(C)CCC6C(C)(C)[C@@H](O)CC[C@]6(C)C5CC(=O)[C@]4(OC2=O)C3C1 (stereo partly drawn) [Compound 5, 3β-Hydroxy-12-oxoolean-28-oic acid 28β→13β-olide] | 38.2 µM | 1.35 | 1.36 | 1.67 | 1.40 | 51.8 µM | –
29.9 µM | 26.1 µM | 26.4 µM | 11 to 90 µM | CC1(C)CC[C@@]23CC[C@]4(C)[C@@](OC2=O)(C3C1)[C@@H](Br)CC1[C@@]2(C)CC[C@H](O)C(C)(C)C2CC[C@]14C (stereo partly drawn) [Compound 9, 12α-Bromo-3β-hydroxyolean-28-oic acid 28β→13β-olide] | 42 µM | 1.21 | 1.71 | 1.95 | 1.93 | 51 µM | ~2
34.6 µM | 25.1 µM | 21.8 µM | 22 to 35 µM | CC1(C)CC[C@@]23CC[C@]4(C)[C@@](OC2=O)(C3C1)[C@@H](Br)CC1[C@@]2(C)CCC(=NO)C(C)(C)C2CC[C@]14C (stereo partly shown) [Compound 11] | 55.4 µM | 0.52 | 0.83 | 1.15 | 1.33 | 28.9 µM | –
66.2 µM | 65.9 µM | 68.3 µM | 11 to 90 µM | CC1(C)CC[C@@]23CC[C@]4(C)[C@@](OC2=O)(C3C1)[C@@H](Br)CC1[C@@]2(C)CCC(=S)NC(C)(C)C2CC[C@]14C (stereo partly drawn) [Compound 14, 12α-bromo-3-thioxo-3a-aza-A-homoolean-28-oic acid 28β→13β-olide] | 87 µM | 0.97 | 1.27 | 1.28 | 1.23 | 84.1 µM | –

SMILES | IC50 [2] | IC50 [3] | IC50 [4] | IC50 (A-549, PC-3, and SKOV-3) | IC50 [1] | Selectivity Index (SI) CHO [1] | Selectivity Index (SI) A-549 [2] | Selectivity Index (SI) PC-3 [3] | Selectivity Index (SI) SKOV-3 [4] | IC50 [5] | Selectivity Index stated over the tested cell lines together (A-549, PC-3, and SKOV-3)
CC(=O)O[C@H]1CC[C@@]2(C)C(CC[C@]3(C)C2CC(=O)[C@]24OC(=O)[C@@]5(CCC(C)(C)CC52)CC[C@@]34C)C1(C)C (stereo partly drawn) [Compound 4, 3β-Acetoxy-12-oxoolean-28-oic acid 28β→13β-olide] | 24.7 µM | 25.9 µM | 22.8 µM | 24 to 38 µM | 52.7 µM | 0.79 | 1.70 | 1.62 | 1.84 | 42 µM | ~2

Source: paper PMC12072072 (International Journal of Molecular Sciences, 2025)
